Reference: patent US12077503B2, “Substituted cyclic amides and their use as herbicides” (FMC CORPORATION, priority 2015, dated 2024)

Assays:
Type in all cases: in vivo
Details in all cases: scale 0 to 100
[1] = test system: pigweed (Amaranthus retroflexus); assay: Test D preemergence
Source text: (§1) Seeds of plant species selected from bluegrass (annual bluegrass, Poa annua), blackgrass (Alopecurus myosuroides), canarygrass (littleseed canarygrass, Phalaris minor), chickweed (common chickweed, Stellaria media), Galium (catchweed bedstraw, Galium aparine), bromegrass, downy (downy bromegrass, Bromus tectorum), field poppy (Papaver rhoeas), field violet (Viola arvensis), foxtail, green (green foxtail, Setaria viridis), deadnettle (henbit deadnettle, Lamium amplexicaule), ryegrass, Italian (Italian ryegrass, Lolium multiflorum), Kochia (Kochia scoparia), lambsquarters (Chenopodium album), oilseed rape (Brassica napus), pigweed (Amaranthus retroflexus), chamomile (scentless chamomile, Matricaria inodora), Russian thistle (Salsola kali), speedwell (bird's-eye speedwell, Veronica persica), barley, spring (spring barley, Hordeum vulgare), wheat, spring (spring wheat, Triticum aestivum), buckwheat, wild (wild buckwheat, Polygonum convolvulus), mustard, wild (wild mustard, Sinapis arvensis), oat, wild (wild oat, Avena fatua), radish, wild (wild radish, Raphanus raphanistrum), windgrass (Apera spica-venti), barley, winter (winter barley Hordeum vulgare), and wheat, winter (winter wheat, Triticum aestivum) were planted into a silt loam soil and treated preemergence with test chemicals formulated in a non-phytotoxic solvent mixture which included a surfactant.
(§2) Treated plants and controls were maintained in a controlled growth environment approximately 21 d after which time all species were compared to controls and visually evaluated. Plant response ratings, summarized in Table D, are based on a scale of 0 to 100 where 0 is no effect and 100 is complete control. A dash (-) response means no test result.

[2] = test system: Russian thistle (Salsola kali); assay: Test D preemergence
Source text: as §1, §2

[3] = test system: Galium (catchweed bedstraw, Galium aparine); assay: Test D preemergence
Source text: as §1, §2

[4] = test system: canarygrass (littleseed canarygrass, Phalaris minor); assay: Test D preemergence
Source text: as §1, §2

[5] = test system: barley, winter (winter barley Hordeum vulgare); assay: Test D preemergence
Source text: as §1, §2

[6] = test system: oilseed rape (Brassica napus); assay: Test D preemergence
Source text: as §1, §2

[7] = test system: mustard, wild (wild mustard, Sinapis arvensis); assay: Test D preemergence
Source text: as §1, §2

[8] = test system: bromegrass, downy (downy bromegrass, Bromus tectorum); assay: Test D preemergence
Source text: as §1, §2

[9] = test system: oat, wild (wild oat, Avena fatua); assay: Test D preemergence
Source text: as §1, §2

[10] = test system: blackgrass (Alopecurus myosuroides); assay: Test D preemergence
Source text: as §1, §2

[11] = test system: bluegrass (annual bluegrass, Poa annua); assay: Test D preemergence
Source text: as §1, §2

[12] = test system: wheat, spring (spring wheat, Triticum aestivum); assay: Test D preemergence
Source text: as §1, §2

[13] = test system: wheat, winter (winter wheat, Triticum aestivum); assay: Test D preemergence
Source text: as §1, §2

[14] = test system: buckwheat, wild (wild buckwheat, Polygonum convolvulus); assay: Test D preemergence
Source text: as §1, §2

[15] = test system: speedwell (bird's-eye speedwell, Veronica persica); assay: Test D preemergence
Source text: as §1, §2

[16] = test system: horseweed (Conyza canadensis); assay: Test E preemergence
Method in brief: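 Visual ratings from 0 (no effect) to 100 (complete control) were made versus controls 14 to 21 d after treatment. Seeds in silt loam were treated preemergence, or plants 2 to 18 cm tall in peat-based medium postemergence, with the test chemical in a surfactant-containing, non-phytotoxic solvent mixture, then held in a greenhouse.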

## CN1C[C@H](c2ccc(C(F)(F)F)cc2)[C@@H](C(=O)Nc2cccc(F)c2F)C1=O [Compound 623, (3S,4S)—N-(2,3-difluorophenyl)-1-methyl-2-oxo-4-[4-(trifluoromethyl)phenyl]-3-pyrrolidinecarboxamide]
[1]; 31 g ai/ha
  Plant response rating: Pigweed: 75
[1]; 62 g ai/ha
  Plant response rating: Pigweed: 95
[1]; 125 g ai/ha
  Plant response rating: Pigweed: 95
[1]; 250 g ai/ha
  Plant response rating: Pigweed: 100
[2]; 31 g ai/ha
  Plant response rating: Russian Thistle: 15
[2]; 62 g ai/ha
  Plant response rating: Russian Thistle: 25
[2]; 125 g ai/ha
  Plant response rating: Russian Thistle: 60
[2]; 250 g ai/ha
  Plant response rating: Russian Thistle: 70
[3]; 31 g ai/ha
  Plant response rating: Galium: 0
[3]; 62 g ai/ha
  Plant response rating: Galium: 5
[3]; 125 g ai/ha
  Plant response rating: Galium: 15
[3]; 250 g ai/ha
  Plant response rating: Galium: 80
[4]; 31 g ai/ha
  Plant response rating: Canarygrass: 25
[4]; 62 g ai/ha
  Plant response rating: Canarygrass: 70
[4]; 125 g ai/ha
  Plant response rating: Canarygrass: 85
[4]; 250 g ai/ha
  Plant response rating: Canarygrass: 85
[5]; 31 g ai/ha
  Plant response rating: Barley, Winter: 5
[5]; 62 g ai/ha
  Plant response rating: Barley, Winter: 10
[5]; 125 g ai/ha
  Plant response rating: Barley, Winter: 40
[5]; 250 g ai/ha
  Plant response rating: Barley, Winter: 65
[6]; 31 g ai/ha
  Plant response rating: Oilseed Rape: 15
[6]; 62 g ai/ha
  Plant response rating: Oilseed Rape: 20
[6]; 125 g ai/ha
  Plant response rating: Oilseed Rape: 25
[6]; 250 g ai/ha
  Plant response rating: Oilseed Rape: 75
[7]; 31 g ai/ha
  Plant response rating: Mustard, Wild: 10
[7]; 62 g ai/ha
  Plant response rating: Mustard, Wild: 15
[7]; 125 g ai/ha
  Plant response rating: Mustard, Wild: 85
[7]; 250 g ai/ha
  Plant response rating: Mustard, Wild: 85
[8]; 31 g ai/ha
  Plant response rating: Bromegrass, Downy: 15
[8]; 62 g ai/ha
  Plant response rating: Bromegrass, Downy: 30
[8]; 125 g ai/ha
  Plant response rating: Bromegrass, Downy: 40
[8]; 250 g ai/ha
  Plant response rating: Bromegrass, Downy: 65
[9]; 31 g ai/ha
  Plant response rating: Oat, Wild: 25
[9]; 62 g ai/ha
  Plant response rating: Oat, Wild: 30
[9]; 125 g ai/ha
  Plant response rating: Oat, Wild: 55
[9]; 250 g ai/ha
  Plant response rating: Oat, Wild: 60
[10]; 31 g ai/ha
  Plant response rating: Blackgrass: 30
[10]; 62 g ai/ha
  Plant response rating: Blackgrass: 40
[10]; 125 g ai/ha
  Plant response rating: Blackgrass: 45
[10]; 250 g ai/ha
  Plant response rating: Blackgrass: 70
[11]; 31 g ai/ha
  Plant response rating: Bluegrass: 25
[11]; 62 g ai/ha
  Plant response rating: Bluegrass: 65
[11]; 125 g ai/ha
  Plant response rating: Bluegrass: 70
[11]; 250 g ai/ha
  Plant response rating: Bluegrass: 85
[12]; 31 g ai/ha
  Plant response rating: Wheat, Spring: 5
[12]; 62 g ai/ha
  Plant response rating: Wheat, Spring: 10
[12]; 125 g ai/ha
  Plant response rating: Wheat, Spring: 20
[12]; 250 g ai/ha
  Plant response rating: Wheat, Spring: 45
[13]; 31 g ai/ha
  Plant response rating: Wheat, Winter: 5
[13]; 62 g ai/ha
  Plant response rating: Wheat, Winter: 20
[13]; 125 g ai/ha
  Plant response rating: Wheat, Winter: 20
[13]; 250 g ai/ha
  Plant response rating: Wheat, Winter: 40
[14]; 31 g ai/ha
  Plant response rating: Buckwheat, Wild: 0
[14]; 62 g ai/ha
  Plant response rating: Buckwheat, Wild: 10
[14]; 125 g ai/ha
  Plant response rating: Buckwheat, Wild: 15
[14]; 250 g ai/ha
  Plant response rating: Buckwheat, Wild: 45
[15]; 31 g ai/ha
  Plant response rating: Speedwell: 95
[15]; 62 g ai/ha
  Plant response rating: Speedwell: 100
[15]; 125 g ai/ha
  Plant response rating: Speedwell: 100
[15]; 250 g ai/ha
  Plant response rating: Speedwell: 90
[16]; 31 g ai/ha
  Plant response rating: Horseweed: 80
[16]; 62 g ai/ha
  Plant response rating: Horseweed: 90
[16]; 125 g ai/ha
  Plant response rating: Horseweed: 90
[16]; 250 g ai/ha
  Plant response rating: Horseweed: 90
